Results taken from patent publication US20230203060A1 (GENFLEET THERAPEUTICS (SHANGHAI) INC., priority 2020, published 2023).

How the values were obtained:
[1] = tested on: phosphorylated ERK downstream of KRAS G12C in MIA PaCa2 cells; assay: Cell p-ERK detection experiment (HTRF) in MIA PaCa2; format: cell-based, human; conditions: Homo sapiens, MIA PaCa-2, 2 h, MIA PaCa2 cells, 2 hours with compound, Advance ERK phospho-T202/Y204 HTRF kit; read-out: p-ERK IC50
Procedure, shortened: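 Phospho-ERK (T202/Y204) measured by HTRF after 30 min lysis and 4 h antibody incubation in MIA PaCa2 (KRAS G12C) cells, seeded at 2.5E4 per well and treated 2 h with compounds in 3.16-fold steps, final DMSO 0.1%. IC50 from a four-parameter fit of percent inhibition relative to DMSO and blank wells.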

[2] = tested on: KRAS G12C mutant NCI-H358 cells; assay: Cell proliferation inhibition experiment, 3D spheroid, CellTiter-Glo, NCI-H358; format: cell-based, human; conditions: Homo sapiens, NCI-H358, 120 h, NCI-H358 (KRAS G12C mutant) 3D spheroid, 5 days with compound, CellTiter-Glo; read-out: H358 IC50
Procedure, shortened: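 CellTiter-Glo luminescence after 5 days' compound treatment (3.16-fold series, 0.1% DMSO) of overnight-formed spheroids in 2% FBS medium: H358 seeded at 800 cells/well in RPMI-1640, A549 at 400 cells/well in F-12K. IC50 derived by four-parameter fit of inhibition normalized to DMSO control and blank.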

IC50 [1]: 29 nM
IC50 [2]: 4 nM
Structure (SMILES): C=CC(=O)N1CCN2C(=O)c3c(N4CC(NC)CC4(C)C)nc(-c4ccccc4F)c(Cl)c3OC[C@H]2C1 (stereo partly drawn) [Z661, (6aR)-8-acryloyl-4-chloro-1-(2,2-dimethyl-4-(methylamino)pyrrolidin-1-yl)-3-(2-fluorophenyl)-6,6a,7,8,9,10-hexahydro-12H-pyrazino[2,1-c]pyrido[3,4-f][1,4]oxazepin-12-one]
